Target: T1, […]F508-CFTR (Homo sapiens, UniProt P13569, DEL508-508)
T1 construct: expressed in transfected cells
Assay: Assay results of Table 3: ΔF508-CFTR modulation, membrane potential optical assay (assay format not stated)
Assay type: cell-based
Conditions: NIH3T3 mouse fibroblasts stably expressing […]F508-CFTR (optical assays); for Efficacy: efficacy range; for EC50: potency range
From the text: A. Membrane Potential Optical Methods for Assaying […]F508-CFTR Modulation Properties of Compounds
The optical membrane potential assay utilized voltage-sensitive FRET sensors described by Gonzalez and Tsien (See, Gonzalez, J. E. and R. Y. Tsien (1995) “Voltage sensing by fluorescence resonance energy transfer in single cells” Biophys J 69(4): 1272-80, and Gonzalez, J. E. and R. Y. Tsien (1997) “Improved indicators of cell membrane potential that use fluorescence resonance energy transfer” Chem Biol 4(4): 269-77) in combination with instrumentation for measuring fluorescence changes such as the Voltage/Ion Probe Reader (VIPR) (See, Gonzalez, J. E., K. Oades, et al. (1999) “Cell-based assays and instrumentation for screening ion-channel targets” Drug Discov Today 4(9): 431-439).
These voltage sensitive assays are based on the change in fluorescence resonant energy transfer (FRET) between the membrane-soluble, voltage-sensitive dye, DiSBAC2(3), and a fluorescent phospholipid, CC2-DMPE, which is attached to the outer leaflet of the plasma membrane and acts as a FRET donor. Changes in membrane potential (Vm) cause the negatively charged DiSBAC2(3) to redistribute across the plasma membrane and the amount of energy transfer from CC2-DMPE changes accordingly. The changes in fluorescence emission were monitored using VIPR™ II, which is an integrated liquid handler and fluorescent detector designed to conduct cell-based screens in 96- or 384-well microtiter plates.
To identify small molecules that correct the trafficking defect associated with ΔF508-CFTR; a single-addition HTS assay format was developed. The cells were incubated in serum-free medium for 16 hrs at 37° C. in the presence or absence (negative control) of test compound. As a positive control, cells plated in 384-well plates were incubated for 16 hrs at 27° C. to “temperature-correct” […]F508-CFTR. The cells were subsequently rinsed 3× with Krebs Ringers solution and loaded with the voltage-sensitive dyes. To activate […]F508-CFTR, 10 µM forskolin and the CFTR potentiator, genistein (20 µM), were added along with Cl^−-free medium to each well. The addition of Cl^−-free medium promoted Cl^− efflux in response to […]F508-CFTR activation and the resulting membrane depolarization was optically monitored using the FRET-based voltage-sensor dyes.
To identify potentiators of […]F508-CFTR, a double-addition HTS assay format was developed. During the first addition, a Cl^−-free medium with or without test compound was added to each well. After 22 sec, a second addition of Cl^−-free medium containing 2-10 µM forskolin was added to activate […]F508-CFTR. The extracellular Cl^− concentration following both additions was 28 mM, which promoted Cl^− efflux in response to […]F508-CFTR activation and the resulting membrane depolarization was optically monitored using the FRET-based voltage-sensor dyes.
Bath Solution #1: (in mM) NaCl 160, KCl 4.5, CaCl2 2, MgCl2 1, HEPES 10, pH 7.4 with NaOH.
Chloride-free bath solution: Chloride salts in Bath Solution #1 are substituted with gluconate salts.
CC2-DMPE: Prepared as a 10 mM stock solution in DMSO and stored at −20° C.
DiSBAC2(3): Prepared as a 10 mM stock in DMSO and stored at −20° C.
NIH3T3 mouse fibroblasts stably expressing […]F508-CFTR are used for optical measurements of membrane potential. The cells are maintained at 37° C. in 5% CO2 and 90% humidity in Dulbecco's modified Eagle's medium supplemented with 2 mM glutamine, 10% fetal bovine serum, 1× NEAA, […]-ME, 1× pen/strep, and 25 mM HEPES in 175 cm^2 culture flasks. For all optical assays, the cells were seeded at 30,000/well in 384-well matrigel-coated plates and cultured for 2 hrs at 37° C. before culturing at 27° C. for 24 hrs for the potentiator assay. For the correction assays, the cells are cultured at 27° C. or 37° C. with and without compounds for 16-24 hoursB.

T1 sequence (P13569 with tags, fused parts or gaps DEL508-508): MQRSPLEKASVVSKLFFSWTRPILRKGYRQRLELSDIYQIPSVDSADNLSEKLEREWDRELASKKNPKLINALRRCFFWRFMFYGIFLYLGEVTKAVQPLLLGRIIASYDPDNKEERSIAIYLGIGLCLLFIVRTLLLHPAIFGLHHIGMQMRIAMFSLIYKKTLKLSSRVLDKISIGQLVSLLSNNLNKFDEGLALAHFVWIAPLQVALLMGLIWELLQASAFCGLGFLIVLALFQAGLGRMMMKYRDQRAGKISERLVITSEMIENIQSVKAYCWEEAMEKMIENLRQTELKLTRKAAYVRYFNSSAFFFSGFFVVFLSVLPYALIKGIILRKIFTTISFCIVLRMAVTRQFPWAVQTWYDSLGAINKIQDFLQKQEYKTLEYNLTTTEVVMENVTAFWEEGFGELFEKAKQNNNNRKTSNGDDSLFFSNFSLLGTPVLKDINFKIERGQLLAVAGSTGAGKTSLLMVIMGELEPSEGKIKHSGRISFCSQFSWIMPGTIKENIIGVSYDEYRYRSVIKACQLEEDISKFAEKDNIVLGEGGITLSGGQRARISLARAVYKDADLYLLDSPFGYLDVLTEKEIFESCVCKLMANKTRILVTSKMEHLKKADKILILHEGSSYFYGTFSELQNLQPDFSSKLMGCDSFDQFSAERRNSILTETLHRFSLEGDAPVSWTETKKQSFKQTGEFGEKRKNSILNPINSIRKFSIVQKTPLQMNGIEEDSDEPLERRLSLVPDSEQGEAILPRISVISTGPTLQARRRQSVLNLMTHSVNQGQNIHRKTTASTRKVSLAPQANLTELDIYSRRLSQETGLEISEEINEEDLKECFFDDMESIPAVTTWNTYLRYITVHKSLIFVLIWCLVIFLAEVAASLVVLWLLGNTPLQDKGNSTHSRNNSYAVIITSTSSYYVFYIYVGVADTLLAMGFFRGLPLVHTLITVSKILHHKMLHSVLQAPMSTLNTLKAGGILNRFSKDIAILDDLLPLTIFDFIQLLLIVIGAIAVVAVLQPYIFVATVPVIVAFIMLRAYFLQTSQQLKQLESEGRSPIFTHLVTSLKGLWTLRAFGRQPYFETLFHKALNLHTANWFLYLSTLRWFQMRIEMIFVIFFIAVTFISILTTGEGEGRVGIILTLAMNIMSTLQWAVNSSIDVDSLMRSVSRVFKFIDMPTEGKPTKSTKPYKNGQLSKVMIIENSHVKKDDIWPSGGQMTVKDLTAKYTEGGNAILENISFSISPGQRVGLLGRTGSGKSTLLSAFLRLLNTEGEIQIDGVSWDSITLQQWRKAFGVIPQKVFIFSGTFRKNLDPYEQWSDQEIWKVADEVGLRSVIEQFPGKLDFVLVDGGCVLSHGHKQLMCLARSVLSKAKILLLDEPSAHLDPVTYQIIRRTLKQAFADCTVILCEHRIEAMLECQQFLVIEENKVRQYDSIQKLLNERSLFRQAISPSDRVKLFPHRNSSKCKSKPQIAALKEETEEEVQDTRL

Row | SMILES | Efficacy | EC50
1 | CC(=O)C1(c2ccccc2)CCN(c2nc(C(N)=O)cc(-c3ccccc3)n2)CC1 [Compound 45] | ++ (++ corresponds to Efficacy between 100 and 50) | 1 to 5 µM
2 | NC(=O)c1cc(-c2ccccc2)nc(N2CC=CCC2)n1 [Compound 46] | +++ (+++ corresponds to Efficacy greater than 100) | 1 to 5 µM
3 | CCN(CC)c1nc(C(=O)NC)cc(-c2ccccc2)n1 [Compound 47] | +++ (+++ corresponds to Efficacy greater than 100) | 1 to 5 µM
4 | C=CCNc1nc(C(N)=O)cc(-c2cccc(OC)c2)n1 [Compound 48] | ++ (++ corresponds to Efficacy between 100 and 50) | > 5 µM
5 | COc1cc2c(cc1OC)CN(c1nc(C(N)=O)cc(-c3ccccc3)n1)CC2 [Compound 49] | ++ (++ corresponds to Efficacy between 100 and 50) | > 5 µM
6 | CCN(Cc1ccccc1)c1nc(C(N)=O)cc(-c2ccccc2)n1 [Compound 50] | +++ (+++ corresponds to Efficacy greater than 100) | < 1 µM
7 | CC(C)CNc1nc(C(N)=O)cc(-c2ccccc2)n1 [Compound 51] | ++ (++ corresponds to Efficacy between 100 and 50) | > 5 µM
8 | CCCCN(Cc1ccccc1)c1nc(C(N)=O)cc(-c2ccccc2)n1 [Compound 52] | ++ (++ corresponds to Efficacy between 100 and 50) | 1 to 5 µM
9 | NC(=O)c1cc(-c2ccccc2)nc(N2CC=C(c3ccccc3)CC2)n1 [Compound 53] | ++ (++ corresponds to Efficacy between 100 and 50) | > 5 µM
10 | NC(=O)c1cc(-c2ccccc2)nc(N2CCc3ccccc3C2)n1 [Compound 54] | ++ (++ corresponds to Efficacy between 100 and 50) | 1 to 5 µM
11 | CCN(CC)c1nc(C(N)=O)cc(-c2ccc(C(C)C)cc2)n1 [Compound 55] | ++ (++ corresponds to Efficacy between 100 and 50) | < 1 µM
12 | CCN(CC)c1nc(C(N)=O)cc(-c2cccc(C)c2)n1 [Compound 56] | +++ (+++ corresponds to Efficacy greater than 100) | 1 to 5 µM
13 | NC(=O)c1cc(-c2ccccc2)nc(-n2cccn2)n1 [Compound 57] | + (+ corresponds to Efficacy less than 50) | > 5 µM
14 | NC(=O)c1cc(-c2ccccc2)nc(-n2ccnc2)n1 [Compound 58] | + (+ corresponds to Efficacy less than 50) | > 5 µM
15 | CCOC(=O)C1CCCN(c2nc(C(N)=O)cc(-c3ccccc3)n2)C1 (centres unmarked) [Compound 59] | + (+ corresponds to Efficacy less than 50) | 1 to 5 µM
16 | NC(=O)c1cc(-c2ccccc2)nc(N2CCC(C(=O)c3ccc(F)cc3)CC2)n1 [Compound 60] | ++ (++ corresponds to Efficacy between 100 and 50) | > 5 µM
17 | CCN(CC)c1nc(C(N)=O)cc(-c2ccccc2C)n1 [Compound 61] | ++ (++ corresponds to Efficacy between 100 and 50) | 1 to 5 µM
18 | CCN(CC)c1nc(C(N)=O)cc(-c2cccc(NC(C)=O)c2)n1 [Compound 62] | ++ (++ corresponds to Efficacy between 100 and 50) | > 5 µM
19 | CN(CCc1c[nH]c2ccccc12)c1nc(C(N)=O)cc(-c2ccccc2)n1 [Compound 63] | ++ (++ corresponds to Efficacy between 100 and 50) | 1 to 5 µM
20 | COc1ccc(-c2cc(C(N)=O)nc(N3CCCCC3)n2)c(OC)c1 [Compound 65] | ++ (++ corresponds to Efficacy between 100 and 50) | > 5 µM
21 | CCN(CC)c1nc(C(N)=O)cc(-c2cc(C)cs2)n1 [Compound 66] | +++ (+++ corresponds to Efficacy greater than 100) | < 1 µM
22 | CCN(CC)c1nc(C(N)=O)cc(-c2ccc(F)cc2)n1 [Compound 67] | +++ (+++ corresponds to Efficacy greater than 100) | 1 to 5 µM

Row | SMILES | Efficacy | EC50
23 | NC(=O)c1cc(-c2ccccc2)nc(N2CCCCCC2)n1 [Compound 68] | ++ (++ corresponds to Efficacy between 100 and 50) | 1 to 5 µM
24 | C=CCN(CC=C)c1nc(C(N)=O)cc(-c2ccccc2)n1 [Compound 69] | +++ (+++ corresponds to Efficacy greater than 100) | 1 to 5 µM
25 | Cc1csc(-c2cc(C(N)=O)nc(N3CCCCC3)n2)c1 [Compound 70] | + (+ corresponds to Efficacy less than 50) | 1 to 5 µM
26 | CC(C)(C)Nc1nc(C(N)=O)cc(-c2ccccc2)n1 [Compound 71] | ++ (++ corresponds to Efficacy between 100 and 50) | > 5 µM
27 | NC(=O)c1cc(-c2ccccc2C(F)(F)F)nc(N2CCCCC2)n1 [Compound 72] | ++ (++ corresponds to Efficacy between 100 and 50) | 1 to 5 µM
28 | CCCC1CCN(c2nc(C(N)=O)cc(-c3ccccc3)n2)CC1 [Compound 73] | + (+ corresponds to Efficacy less than 50) | 1 to 5 µM
29 | CCN(CC)c1nc(C(N)=O)cc(-c2cccc(OC)c2)n1 [Compound 74] | +++ (+++ corresponds to Efficacy greater than 100) | 1 to 5 µM
30 | CCN(CC)c1nc(C(N)=O)cc(-c2cccc(C(F)(F)F)c2)n1 [Compound 75] | ++ (++ corresponds to Efficacy between 100 and 50) | < 1 µM
31 | CCN(CC)c1nc(C(N)=O)cc(-c2cc(C(C)C)ccc2OC)n1 [Compound 76] | +++ (+++ corresponds to Efficacy greater than 100) | < 1 µM
32 | COc1cccc(-c2cc(C(N)=O)nc(N(C)C)n2)c1 [Compound 77] | + (+ corresponds to Efficacy less than 50) | > 5 µM
33 | COc1ccc(-c2cc(C(N)=O)nc(N3CCCCCC3)n2)cc1 [Compound 78] | ++ (++ corresponds to Efficacy between 100 and 50) | 1 to 5 µM
34 | NC(=O)c1cc(-c2ccccc2)nc(N2CC=CC2)n1 [Compound 79] | +++ (+++ corresponds to Efficacy greater than 100) | 1 to 5 µM
35 | COc1cccc(-c2cc(C(N)=O)nc(NCC3CCCO3)n2)c1 (centres unmarked) [Compound 80] | + (+ corresponds to Efficacy less than 50) | > 5 µM
36 | CCN(CC)c1nc(C(N)=O)cc(-c2cc3ccccc3s2)n1 [Compound 81] | +++ (+++ corresponds to Efficacy greater than 100) | 1 to 5 µM
37 | CCN(CC)c1nc(C(N)=O)cc(-c2ccc(OC)c(OC)c2)n1 [Compound 82] | ++ (++ corresponds to Efficacy between 100 and 50) | < 1 µM
38 | CN(CC#N)c1nc(C(N)=O)cc(-c2ccccc2)n1 [Compound 83] | + (+ corresponds to Efficacy less than 50) | > 5 µM
39 | CCN(CC)c1nc(C(N)=O)cc(-c2cccc(OC(F)(F)F)c2)n1 [Compound 84] | ++ (++ corresponds to Efficacy between 100 and 50) | < 1 µM
40 | CCN(CC)c1nc(C(N)=O)cc(-c2cccc(C(=O)OC(C)C)c2)n1 [Compound 85] | ++ (++ corresponds to Efficacy between 100 and 50) | < 1 µM
41 | NC(=O)c1cc(-c2ccccc2)nc(N2CCCCCCC2)n1 [Compound 86] | ++ (++ corresponds to Efficacy between 100 and 50) | < 1 µM
42 | CCCN(CC1CC1)c1nc(C(N)=O)cc(-c2ccccc2)n1 [Compound 87] | ++ (++ corresponds to Efficacy between 100 and 50) | 1 to 5 µM
43 | COCCCNc1nc(C(N)=O)cc(-c2cccc(OC)c2)n1 [Compound 88] | + (+ corresponds to Efficacy less than 50) | > 5 µM

— US8822451B2, “Modulators of ATP-binding cassette transporters” (Vertex Pharmaceuticals Incorporated, priority 2005, dated 2014)
